Measurements published in paper PMC8645336, “Benchmarking a highly selective USP30 inhibitor for enhancement of mitophagy and pexophagy” (Life Science Alliance, 2021).

Experiments:
Assay in all cases: biochemical
Set-up in all cases: Ubiquigent DUB profiler selectivity panel, remaining enzyme activity as % of control
Settings in all cases: read-out: % of control remaining
[1] = target: USP20 (Homo sapiens, UniProt Q9Y2K6)
Experimental: (§1) Previous work has reported IC50 values for a series of benzosulphonamide inhibitors, of which all those <1 μM were screened for selectivity, in comparison to three other USP family members ([20], [21]). We have selected one of these compounds (CMPD-39, Fig 1A) for a more rigorous test of selectivity provided by the Ubiquigent DUB profiler screening platform comprising >40 DUBs. […] To test engagement of the inhibitor with USP30 applied to intact cells, we assayed competition with Ub-PA (Ub-propargylamide). Ub-PA covalently binds to the USP30 active site leading to a characteristic upshift on a SDS–PAGE gel ([22]). If a drug blocks access to the catalytic site, then the probe modification is blocked and the apparent molecular weight of USP30 shifts down accordingly. […] A robust proxy read-out for target engagement is the enhancement of TOMM20 ubiquitylation after mitochondrial depolarization ([6], [16]). This second assay indicates a maximal effect with 200 nM CMPD-39 applied to RPE1-YFP-PRKN cells (Fig 1D).  Figure 1. CMPD-39 is a selective USP30 inhibitor. (A) Chemical structure of CMPD-39. (B) DUB specificity screen (DUB profiler, Ubiquigent) with 1-100 μM CMPD-39. […] Samples were incubated with CMPD-39 for 2 h at the indicated concentrations, then incubated with HA-Ub-PA probe for 10 min at 37°C and immunoblotted as shown. Red arrow indicates unbound USP30; blue arrow represents probe bound USP30. (D) Inhibition of USP30 enhances the ubiquitylation of TOMM20 in YFP-PRKN over-expressing hTERT-RPE1 cells in a concentration dependent manner in response to mitophagy induction. Cells were treated for 1 h with DMSO or antimycin A and oligomycin A (AO; 1 μM each) in the absence or presence of CMPD-39 at the indicated concentrations, lysed, and analyzed by Western blotting. Black arrow indicates unmodified TOMM20, ubiquitylated species are indicated by red (mono-ubiquitylated) or blue arrow heads. […] Source data are available for this figure.

[2] = target: T1, OTUD3 (Homo sapiens, UniProt Q5T2D3)
T1 sequence (Q5T2D3 1-398): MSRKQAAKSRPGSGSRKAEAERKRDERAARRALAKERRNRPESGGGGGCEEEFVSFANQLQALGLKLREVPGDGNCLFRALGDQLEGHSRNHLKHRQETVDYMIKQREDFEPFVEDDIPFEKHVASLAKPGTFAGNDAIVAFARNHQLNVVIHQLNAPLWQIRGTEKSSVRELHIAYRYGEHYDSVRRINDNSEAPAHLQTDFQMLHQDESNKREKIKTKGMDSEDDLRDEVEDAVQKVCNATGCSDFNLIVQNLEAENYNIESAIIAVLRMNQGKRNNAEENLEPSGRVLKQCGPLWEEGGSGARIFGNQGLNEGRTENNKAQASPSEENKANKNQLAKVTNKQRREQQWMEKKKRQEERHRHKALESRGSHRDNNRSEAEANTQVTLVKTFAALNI
Experimental: as §1

[3] = target: USP46/UAF1/WDR20 (Homo sapiens, UniProt P62068)
Sequence of USP46/UAF1/WDR20 (P62068 whole entry): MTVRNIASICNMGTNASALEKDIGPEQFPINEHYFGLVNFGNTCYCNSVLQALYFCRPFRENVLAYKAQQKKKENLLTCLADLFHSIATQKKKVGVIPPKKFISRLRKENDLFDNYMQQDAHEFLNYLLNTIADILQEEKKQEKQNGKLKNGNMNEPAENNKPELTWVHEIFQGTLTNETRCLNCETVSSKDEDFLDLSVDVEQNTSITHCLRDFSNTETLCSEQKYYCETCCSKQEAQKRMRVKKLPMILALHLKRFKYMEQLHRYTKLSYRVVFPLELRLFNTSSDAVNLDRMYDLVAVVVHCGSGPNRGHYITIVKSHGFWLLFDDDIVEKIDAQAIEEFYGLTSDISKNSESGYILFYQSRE
Sequence of USP46/UAF1/WDR20 (Q8TAF3 whole entry partner): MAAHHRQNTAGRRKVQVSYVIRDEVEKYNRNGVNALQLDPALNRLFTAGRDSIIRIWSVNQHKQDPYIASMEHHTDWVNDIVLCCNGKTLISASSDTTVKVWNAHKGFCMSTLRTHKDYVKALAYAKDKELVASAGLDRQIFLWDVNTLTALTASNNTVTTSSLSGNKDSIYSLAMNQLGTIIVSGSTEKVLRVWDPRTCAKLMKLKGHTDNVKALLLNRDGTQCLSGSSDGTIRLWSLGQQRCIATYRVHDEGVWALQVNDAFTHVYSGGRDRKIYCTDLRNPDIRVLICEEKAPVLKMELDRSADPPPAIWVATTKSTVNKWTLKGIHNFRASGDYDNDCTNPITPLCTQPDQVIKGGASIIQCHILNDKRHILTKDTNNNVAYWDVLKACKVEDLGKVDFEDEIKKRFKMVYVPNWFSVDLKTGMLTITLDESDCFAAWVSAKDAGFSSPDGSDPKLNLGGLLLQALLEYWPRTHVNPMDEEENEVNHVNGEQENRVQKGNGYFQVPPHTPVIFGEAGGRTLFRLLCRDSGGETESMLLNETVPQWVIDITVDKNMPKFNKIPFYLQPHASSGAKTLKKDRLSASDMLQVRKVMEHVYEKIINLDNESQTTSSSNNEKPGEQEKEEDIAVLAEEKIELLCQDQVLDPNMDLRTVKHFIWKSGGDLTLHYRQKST
Sequence of USP46/UAF1/WDR20 (Q8TBZ3 whole entry partner): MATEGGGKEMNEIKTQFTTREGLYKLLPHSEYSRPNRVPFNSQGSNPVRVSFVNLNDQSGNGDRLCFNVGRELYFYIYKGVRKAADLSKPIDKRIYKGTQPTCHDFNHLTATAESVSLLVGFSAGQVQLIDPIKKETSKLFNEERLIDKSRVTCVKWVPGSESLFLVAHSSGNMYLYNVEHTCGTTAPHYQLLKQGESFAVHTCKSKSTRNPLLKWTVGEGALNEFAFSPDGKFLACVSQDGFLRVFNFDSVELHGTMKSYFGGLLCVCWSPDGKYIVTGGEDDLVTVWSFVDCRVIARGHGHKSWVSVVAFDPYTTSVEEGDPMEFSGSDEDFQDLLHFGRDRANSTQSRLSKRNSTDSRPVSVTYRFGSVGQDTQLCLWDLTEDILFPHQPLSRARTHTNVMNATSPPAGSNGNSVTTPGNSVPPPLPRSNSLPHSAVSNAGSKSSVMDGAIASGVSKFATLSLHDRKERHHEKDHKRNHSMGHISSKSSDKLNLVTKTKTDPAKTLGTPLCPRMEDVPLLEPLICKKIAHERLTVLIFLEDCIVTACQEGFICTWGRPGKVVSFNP
Experimental: as §1

[4] = target: T2, USP45 (Homo sapiens, UniProt Q70EL2)
T2 sequence (Q70EL2 1-814): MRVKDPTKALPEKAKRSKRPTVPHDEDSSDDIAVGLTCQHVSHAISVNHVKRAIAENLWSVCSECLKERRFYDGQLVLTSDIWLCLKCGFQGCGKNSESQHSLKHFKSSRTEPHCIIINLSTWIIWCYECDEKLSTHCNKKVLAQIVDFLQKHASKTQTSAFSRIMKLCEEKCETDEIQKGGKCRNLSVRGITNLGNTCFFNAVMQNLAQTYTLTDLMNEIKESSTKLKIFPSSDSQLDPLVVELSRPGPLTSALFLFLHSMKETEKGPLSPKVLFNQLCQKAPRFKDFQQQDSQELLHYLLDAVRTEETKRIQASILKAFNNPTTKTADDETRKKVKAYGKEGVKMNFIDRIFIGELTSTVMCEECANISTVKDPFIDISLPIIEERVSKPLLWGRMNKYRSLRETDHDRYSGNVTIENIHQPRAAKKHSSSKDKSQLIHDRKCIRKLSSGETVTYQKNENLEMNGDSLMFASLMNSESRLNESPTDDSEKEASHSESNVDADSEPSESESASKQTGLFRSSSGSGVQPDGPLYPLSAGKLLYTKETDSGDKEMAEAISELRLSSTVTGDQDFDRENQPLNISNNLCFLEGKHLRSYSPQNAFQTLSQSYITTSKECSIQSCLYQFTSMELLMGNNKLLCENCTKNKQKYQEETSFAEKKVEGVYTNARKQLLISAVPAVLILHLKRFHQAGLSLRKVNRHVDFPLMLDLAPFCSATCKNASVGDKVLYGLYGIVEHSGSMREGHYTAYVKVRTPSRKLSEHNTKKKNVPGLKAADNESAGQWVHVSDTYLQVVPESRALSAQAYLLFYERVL
Experimental: as §1

Sequence of USP20 (Q9Y2K6 whole entry): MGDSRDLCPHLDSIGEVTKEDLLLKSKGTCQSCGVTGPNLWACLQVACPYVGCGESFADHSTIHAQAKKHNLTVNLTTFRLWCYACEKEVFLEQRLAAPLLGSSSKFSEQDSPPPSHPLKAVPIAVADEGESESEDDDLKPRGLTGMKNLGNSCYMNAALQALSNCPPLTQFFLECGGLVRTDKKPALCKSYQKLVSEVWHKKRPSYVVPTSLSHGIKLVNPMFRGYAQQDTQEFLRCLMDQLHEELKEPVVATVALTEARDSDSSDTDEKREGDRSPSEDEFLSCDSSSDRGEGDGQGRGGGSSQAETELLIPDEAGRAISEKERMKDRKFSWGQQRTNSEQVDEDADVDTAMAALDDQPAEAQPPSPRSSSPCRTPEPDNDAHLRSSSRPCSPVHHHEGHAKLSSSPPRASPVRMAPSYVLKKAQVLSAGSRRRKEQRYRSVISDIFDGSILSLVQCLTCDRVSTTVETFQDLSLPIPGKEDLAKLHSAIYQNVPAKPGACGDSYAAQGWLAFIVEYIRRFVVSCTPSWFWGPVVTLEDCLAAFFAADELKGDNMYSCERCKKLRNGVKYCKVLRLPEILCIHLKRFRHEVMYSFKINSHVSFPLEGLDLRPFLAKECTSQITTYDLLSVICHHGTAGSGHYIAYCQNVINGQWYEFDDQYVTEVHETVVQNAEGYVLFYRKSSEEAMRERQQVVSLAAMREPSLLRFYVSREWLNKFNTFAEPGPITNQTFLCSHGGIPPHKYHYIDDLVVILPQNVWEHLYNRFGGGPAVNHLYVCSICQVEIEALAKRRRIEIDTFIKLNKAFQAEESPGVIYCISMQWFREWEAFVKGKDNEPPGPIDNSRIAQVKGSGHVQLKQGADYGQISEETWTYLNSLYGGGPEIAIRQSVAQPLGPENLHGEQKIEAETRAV

remaining activity at 1 µM [1]: 113% | remaining activity at 10 µM [1]: 110% | remaining activity at 100 µM [1]: 155% | remaining activity at 1 µM [2]: 105% | remaining activity at 10 µM [2]: 101% | remaining activity at 100 µM [2]: 107% | remaining activity at 1 µM [3]: 110% | remaining activity at 10 µM [3]: 97.5% | remaining activity at 100 µM [3]: 97.4% | remaining activity at 1 µM [4]: 98.8% | remaining activity at 10 µM [4]: 95% | remaining activity at 100 µM [4]: 100%
SMILES: CC(C)(C)NS(=O)(=O)c1ccc(NC(=O)[C@H](Cc2ccccc2)NC(=O)c2ccc(F)cc2)cc1 [compound 39, CMPD-39]
